Patent publication US20170304281A1, “METHODS OF USING POTASSIUM CHANNEL INHIBITORS (BLOCKERS) FOR FLUID RESUSCITATION” (Loyola University of Chicago, priority 2016, published 2017)
Read-outs that look alike come from different tables or passages of the source.

What was measured:
[1] = system: rats hemorrhaged to induce hemorrhagic shock; test: Fluid resuscitation after hemorrhagic shock, resuscitation fluid (normal saline) supplemented with drug; assay type: in vivo, rat; conditions: for fluid requirements to resuscitate to a MAP of 70 mmHg: mean±SD
Procedure: Further phases of the investigation entailed the use of anesthetized male Sprague-Dawley rats that were hemorrhaged to a mean arterial blood pressure (MAP) of 25 mmHg for thirty minutes to induce hemorrhagic shock, followed by fluid resuscitation with normal saline to a MAP of 70 mmHg until t=75 minutes. Hemodynamics and fluid requirements were continuously monitored. […] At the end of the hemorrhagic shock period (t=30 min), animals were resuscitated with normal saline alone (“vehicle”; n=4) or normal saline supplemented with 1.25 (n=4), 6.25 (n=3), 12.5 (n=4), or 200 (n=6) […] of linopirdine. Plot “A” represents the mean arterial blood pressure (MAP, mmHg), plot “B” represents the hemorrhage volume in percent of total blood volume, and plot “C” represents the resuscitation fluid requirements to maintain blood pressure at 70 mmHg. Fluid requirements to resuscitate to a MAP of 70 mmHg were: 73±12 mL/kg with NS, 72±24 mL/kg with NS supplemented with 1.25 μg/mL linopirdine and 61±20 mL/kg, 36±9 mL/kg (p<0.05 vs. NS alone) and 31±9 mL/kg (p<0.05 vs. NS alone) with NS supplemented with 6.25 μg/mL, 12.5 μg/mL and 200 μg/mL linopirdine, respectively. […] Data are mean±SD. *:p<0.05 vs. normal saline alone. Two-way ANOVA/Bonferroni post-hoc multiple comparison test.

[2] = rat, in vivo
Procedure: After intravenous injection of 2.5 mg/kg linopirdine, a half-life of 0.6 hours has been determined in rats. Thus, the short half-life would indicate that linopirdine is a drug that is easily controllable if adverse effects were to occur.

[3] = intravenous injection of 2.5 mg/kg in rats; cited from earlier work
[4] = phase 1 and phase 2 clinical trials as cognition-enhancing drug in Alzheimer's disease; cited from earlier work
[5] = system: rats hemorrhaged to induce hemorrhagic shock; test: Fluid resuscitation after hemorrhagic shock, intravenous bolus injection at end of shock period; assay type: in vivo, rat; conditions: for fluid requirements to resuscitate to a MAP of 70 mmHg: mean±SD
Procedure: Further phases of the investigation entailed the use of anesthetized male Sprague-Dawley rats that were hemorrhaged to a mean arterial blood pressure (MAP) of 25 mmHg for thirty minutes to induce hemorrhagic shock, followed by fluid resuscitation with normal saline to a MAP of 70 mmHg until t=75 minutes. Hemodynamics and fluid requirements were continuously monitored.
FIG. 3 contains three plots evidencing the ability of linopirdine to dose-dependently reduce fluid requirements to maintain hemodynamics during resuscitation from induced hemorrhagic shock. At the end of the hemorrhagic shock period (t=30 min), normal saline alone (“vehicle”; n=4), 1 mg/kg (n=5), 3 mg/kg (n=3), or 6 mg/kg (n=3) linopirdine in 0.5 mL normal saline were bolus injected intravenously. Plot “A” represents the mean arterial blood pressure (MAP, mmHg), plot “B” represents the hemorrhage volume in percent of total blood volume, and plot “C” represents the resuscitation fluid requirements to maintain blood pressure at 70 mmHg. Fluid requirements to resuscitate to a MAP of 70 mmHg were: 65±34 mL/kg with normal saline alone and 57±13 mL/kg, 22±8 mL/kg (p<0.05 vs. normal saline alone) and 22±11 mL/kg (p<0.05 vs. normal saline alone) with 1 mg/kg, 3 mg/kg, and 6 mg/kg linopirdine, respectively. The effect of linopirdine to reduce fluid requirements to maintain hemodynamics during resuscitation from hemorrhagic shock appeared to be saturated at a bolus dose of about 3 mg/kg linopirdine. As compared with normal saline-treated animals, a bolus injection of linopirdine (3 mg/kg and 6 mg/kg) reduced fluid resuscitation requirements by 70%. Data are mean±SD. *:p<0.05 vs. normal saline alone. Two-way ANOVA/Bonferroni post-hoc multiple comparison test.
At the end of the hemorrhagic shock period (t=30 min), normal saline alone (“vehicle”; n=3) or 1 mg/kg (n=3) of XE991 in 0.5 mL normal saline were injected intravenously. Plot “A” represents the mean arterial blood pressure (MAP, mmHg), plot “B” represents the hemorrhage volume in percent of total blood volume, and plot “C” represents the resuscitation fluid requirements to maintain blood pressure at 70 mmHg. […] Data are mean±SD. *:p<0.05 vs. normal saline alone. Two-way ANOVA/Bonferroni post-hoc multiple comparison test.

[6] = oral administration in humans; cited from earlier work
normal rats = test: Effect of intravenous bolus doses on blood pressure in normal anesthetized rats (sham, no hemorrhage); assay type: in vivo, rat; conditions: for peak mean arterial blood pressure (MAP): normal rats n=3, baseline MAP 92±2.5 mmHg, mean±SD
Procedure: Initial phases of the investigation entailed the administration of linopirdine to anesthetized male Sprague-Dawley rats to determine its effect on blood pressure. Hemodynamics and fluid requirements were continuously monitored.
FIG. 1 contains a plot representing the effect of linopirdine on blood pressure in normal rats (sham—no hemorrhage, n=3) that received five increasing intravenous (i.v.) bolus doses of linopirdine (0.1-6 mg per kg of body weight) in 0.5 mL normal saline (NS) at fifteen minute intervals. […] Data are mean±SD.
FIG. 2 contains a plot representing the effect of the Kv7 channel activator retigabine on blood pressure when administered to normal rats (sham—no hemorrhage, n=3) by intravenous injection in increasing dosages of 0.1 mg/kg, 0.5 mg/kg, 1 mg/kg, 3 mg/kg, 6 mg/kg, and 12 mg/kg in 0.5 mL normal saline. […] Data are mean±SD.

Kv7 channel = conditions: XE991 vs linopirdine; cited from earlier work

In the case of `O=C1N(c2ccccc2)c2ccccc2C1(Cc1ccncc1)Cc1ccncc1` [linopirdine], the “fluid requirements to resuscitate to a MAP of 70 mmHg” value (shortened to “fluid requirements to resuscitate”) ([1]; NS supplemented with 1.25 μg/mL linopirdine, n=4, NS alone 73±12 mL/kg) is reported as 72 ± 24 mL/kg, the “fluid requirements to resuscitate” value ([1]; NS supplemented with 6.25 μg/mL linopirdine, n=3, NS alone 73±12 mL/kg) is reported as 61 ± 20 mL/kg and the “fluid requirements to resuscitate” value ([1]; NS supplemented with 12.5 μg/mL linopirdine, n=4, p<0.05 vs. NS alone (73±12 mL/kg), cumulative dose 0.446 mg/kg) is reported as 36 ± 9 mL/kg. The “fluid requirements to resuscitate” value ([1]; NS supplemented with 200 μg/mL linopirdine, n=6, p<0.05 vs. NS alone (73±12 mL/kg)) was 31 ± 9 mL/kg, the “concentration in normal saline at which the effect was saturated” value ([1]; supplemented resuscitation fluid, hemorrhagic shock rats) was 12.5 µg/mL and the “toxicity associated with treatment” value [2] was “No toxicity”. For the same molecule, the half-life [3] was 36 min, the “adverse effects in clinical trials” value [4] was “no relevant adverse effects” and the “fluid requirements to resuscitate” value ([5]; 1 mg/kg i.v. bolus at t=30 min, n=5, normal saline alone 65±34 mL/kg) was 57 ± 13 mL/kg. The “fluid requirements to resuscitate” value ([5]; 3 mg/kg i.v. bolus at t=30 min, n=3, p<0.05 vs. normal saline alone (65±34 mL/kg)) was 22 ± 8 mL/kg, the “fluid requirements to resuscitate” value ([5]; 6 mg/kg i.v. bolus at t=30 min, n=3, p<0.05 vs. normal saline alone (65±34 mL/kg)) was 22 ± 11 mL/kg and the “reduction of fluid resuscitation requirements compared with normal saline-treated animals” value ([5]; bolus injection 3 mg/kg and 6 mg/kg) was 70%. The “bolus dose at which the fluid-sparing effect appeared saturated” value ([5]; i.v. bolus, hemorrhagic shock rats) was “about 3 mg/kg”, the “reduction of resuscitation fluid requirements at saturating dose” value ([5]; single dose of three milligrams per kilogram at beginning of fluid resuscitation) was 65% and the half-life [6] was 24 to 192 min. The “transient increase of mean arterial blood pressure” value (normal rats; 6 mg/kg i.v. injection, normal rats) was “approximately 10%”, the “reversal of retigabine-induced hypotension” value (normal rats; 6 mg/kg linopirdine injected after last (12 mg/kg) dosage of retigabine, normal rats) was “able to be reversed” and the “time for MAP to return to baseline after bolus” value (normal rats; 0.1-6 mg/kg i.v. bolus doses, normal rats) was “ten to fifteen”. The “effect on systemic blood pressures” value (normal rats; high i.v. bolus dose 6 mg/kg and total i.v. dose 10.6 mg/kg within one hour, normotensive rats) was “only minimal and short-lived increases”, the “peak mean arterial blood pressure (MAP)” value (normal rats; linopirdine 0.1 mg/kg i.v. bolus) was 92±2 mmHg and the “peak mean arterial blood pressure (MAP)” value (normal rats; linopirdine 0.5 mg/kg i.v. bolus) was 93±2 mmHg. For the same molecule, the “peak mean arterial blood pressure (MAP)” value (normal rats; linopirdine 1 mg/kg i.v. bolus) was 95±4 mmHg, the “peak mean arterial blood pressure (MAP)” value (normal rats; linopirdine 3 mg/kg i.v. bolus) was 100±2 mmHg and the “peak mean arterial blood pressure (MAP)” value (normal rats; linopirdine 6 mg/kg i.v. bolus) was 105±0.6 mmHg.

For `O=C1c2ccccc2C(Cc2ccncc2)(Cc2ccncc2)c2ccccc21` [XE991], the “effect on resuscitation fluid requirements relative to linopirdine” value ([5]; XE991 1 mg/kg i.v. bolus, n=3, compared with linopirdine 3 mg/kg and 6 mg/kg) is given as “comparable effect” and the “potency for channel blockade relative to linopirdine” value (Kv7 channel) is given as “five to ten-fold higher potency”.
